Source: patent US9409943B2 (Bristol-Myers Squibb Company, priority 2012, dated 2016)
Like-named read-outs stand apart in the source and are kept apart here.

Key:
HCV GT1a(H77) replicon = assay: HCV replicon luciferase reporter assay, genotype 1a; assay type: cell-based, HCV genotype 1a; conditions: Hepatitis C virus, 72 h, HUH-7 cells, 3 days incubation
From the text: A stable HCV GT1a(H77) replicon luciferase reporter cell line (Yanagi M, Purcell R H, Emerson S U, et al. Transcripts from a single full-length cDNA clone of hepatitis C virus are infectious when directly transfected into the liver of a chimpanzee. Proc Natl Acad Sci USA 1997; 94(16):8738-8743) was generated as described previously for the genotype 1b(Con1) replicon luciferase cell line. The replicon construct was modified by introducing mutations into the genes encoding the NS3 helicase domain (proline replaced by leucine at position 1496) and NS5A (serine to isoleucine at position 2204) to improve replication in cell culture.
(§1) HCV replicon luciferase assays were developed to monitor the inhibitory effects of compounds described in the disclosure on HCV genotypes 1a and 1b viral replication. HUH-7 cells, constitutively expressing the HCV replicon, were grown in Dulbecco's Modified Eagle Media (DMEM) (Gibco-BRL) containing 10% Fetal calf serum (FCS) (Sigma) and 1 mg/mL G418 (Gibco-BRL). Compounds were serially diluted 3 folds in DMSO for a twenty-point titration and subsequently transferred to sterile 384-well tissue-culture treated plates (Corning cat #3571). The plates were then seeded with 50 μL of cells at a density of 3.0×10^3 cells/well in DMEM containing 4% FCS (final DMSO concentration at 0.5%). After 3 days incubation at 37° C., cells were analyzed for Renilla Luciferase activity using the EnduRen as substrate (Promega cat #E6485). The EnduRen substrate was diluted in DMEM and then added to the plates to a final concentration of 7.5 μM. The plates were incubated for 2 hrs at 37° C. and then read immediately for 30 seconds with Viewlux Imager (PerkinElmer) using a luminescence program. To assess cytotoxicity of compounds, CC50 values were generated by multiplexing the EnduRen-containing plates with Cell Titer-Blue (Promega, cat # G8082). Cell-Titer Blue (3 μL) was added to each well and incubated for 8 hrs at 37° C. The fluorescence signal from each well was read, with an excitation wavelength at 525/10 nm and an emission wavelength of 598/10 nm, using the Viewlux Imager.
(§2) The EC50 values for compounds were calculated by using a four-parameter logistic equation: y=A+((B−A)/(1+((C/x)^D))), where A and B denotes minimal and maximal % inhibition, respectively, C is the EC50, D is the hill slope and x represents compound concentration.

HCV GT1b(Con1) replicon = assay: HCV replicon luciferase reporter assay, genotype 1b; assay type: cell-based, HCV genotype 1b; conditions: Hepatitis C virus, 72 h, HUH-7 cells, 3 days incubation
From the text: An HCV GT1b(Con1) replicon cell system was established as described by Lohmann V, Korner F, Koch J, Herian U, Theilmann L, Bartenschlager R., Science 285(5424):110-3 (1999) and modified to introduce a luciferase reporter (Krieger N, Lohmann V, and Bartenschlager R, J. Virol. 75(10):4614-4624 (2001)). cDNA encoding a humanized form of the Renilla luciferase gene, and a linker sequence fused directly to the 3′-end of the luciferase gene were introduced into the replicon construct using an Asc1 restriction site located in core, directly upstream of the neomycin marker gene. The adaptive mutation at position 1179 (serine to isoleucine) was also introduced (Blight K J, Kolykhalov, A A, Rice, C M, Science 290(5498):1972-1974). A stable cell line constitutively expressing this HCV replicon construct was generated by first linearizing plasmid DNAs with ScaI. RNA transcripts were synthesized in vitro using the T7 MegaScript transcription kit (Ambion, Austin, Tex.) according to manufacturer's directions. In vitro transcripts of the cDNA were transfected into the human hepatoma cell line, HUH-7. […] Resulting cell lines were characterized for positive and negative strand RNA production and protein production over time.
as §1, §2

Compound	EC50 (HCV GT1a(H77) replicon; read-out: LE_1a (EC50, range))	EC50 (HCV GT1b(Con1) replicon; read-out: LE_1b (EC50, range))	EC50 (HCV GT1a(H77) replicon; read-out: LE_1a (EC50))	EC50 (HCV GT1b(Con1) replicon; read-out: LE_1b (EC50))
C[C@@H]1CC/C=C\[C@@H]2C[C@@]2(C(=O)NS(=O)(=O)C2(CF)CC2)NC(=O)[C@@H]2C[C@@H](OC(=O)c3cccc(F)c3)CN2C(=O)[C@@H](NC(=O)OC(C)(C)C(F)(F)F)[C@H](C)C1 [Compound 1010, (2R,6S,7R,9R,13aS,14aR,16aS,Z)-14a-(((1-(fluoromethyl)cyclopropyl)sulfonyl)carbamoyl)-7,9-dimethyl-5,16-dioxo-6-((((1,1,1-trifluoro-2-methylpropan-2-yl)oxy)carbonyl)amino)-1,2,3,5,6,7,8,9,10,11,13a,14,14a,15,16,16a-hexadecahydrocyclopropa[e]pyrrolo[1,2-a][1,4]diazacyclopentadecin-2-yl 3-fluorobenzoate]	5.01 to 35 nM	1.01 to 5 nM		
CC[C@@H]1C[C@@H](C)CC/C=C\[C@@H]2C[C@@]2(C(=O)NS(=O)(=O)C2(C)CC2)NC(=O)[C@@H]2C[C@@H](OC(=O)N3Cc4cccc(F)c4C3)CN2C(=O)[C@H]1NC(=O)OC(C)(C)C [Compound 1312, (2R,6S,7R,9S,13aS,14aR,16aS,Z)-6-((tert-butoxycarbonyl)amino)-7-ethyl-9-methyl-14a-(((1-methylcyclopropyl)sulfonyl)carbamoyl)-5,16-dioxo-1,2,3,5,6,7,8,9,10,11,13a,14,14a,15,16,16a-hexadecahydrocyclopropa[e]pyrrolo[1,2-a][1,4]diazacyclopentadecin-2-yl 4-fluoroisoindoline-2-carboxylate]	5.01 to 35 nM	1.01 to 5 nM		
C[C@@H]1CC/C=C\[C@@H]2C[C@@]2(C(=O)NS(=O)(=O)C2(C)CC2)NC(=O)[C@@H]2C[C@@H](OC(=O)Nc3ccccc3C(F)(F)F)CN2C(=O)[C@@H](NC(=O)OC(C)(C)C(F)(F)F)[C@H](C)C1 [Compound 1307]	1.01 to 5 nM	1.01 to 5 nM		
Cc1cc(C)c(NC(=O)O[C@@H]2C[C@H]3C(=O)N[C@]4(C(=O)NS(=O)(=O)C5(C)CC5)C[C@H]4/C=C\CC[C@@H](C)C[C@@H](C)[C@H](NC(=O)OC(C)(C)C)C(=O)N3C2)c(Cl)c1 [Compound 1306]	5.01 to 35 nM	5.01 to 35 nM		
C[C@H]1CC/C=C\[C@@H]2C[C@@]2(C(=O)NS(=O)(=O)C2(C)CC2)NC(=O)[C@@H]2C[C@@H](OC(=O)c3ccc4c(c3)OCCO4)CN2C(=O)[C@@H](NC(=O)OC(C)(C)C)[C@H](C)C1 [Compound 1012, (2R,6S,7R,9S,13aS,14aR,16aS,Z)-6-((tert-butoxycarbonyl)amino)-7,9-dimethyl-14a-(((1-methylcyclopropyl)sulfonyl)carbamoyl)-5,16-dioxo-1,2,3,5,6,7,8,9,10,11,13a,14,14a,15,16,16a-hexadecahydrocyclopropa[e]pyrrolo[1,2-a][1,4]diazacyclopentadecin-2-yl 2,3-dihydrobenzo[b][1,4]dioxine-6-carboxylate]	5.01 to 35 nM	1.01 to 5 nM		
COc1ccccc1C(=O)O[C@@H]1C[C@H]2C(=O)N[C@]3(C(=O)NS(=O)(=O)C4(CF)CC4)C[C@H]3/C=C\CC[C@@H](C)C[C@@H](C)[C@H](NC(=O)OC(C)(C)C(F)(F)F)C(=O)N2C1 [Compound 1008, (2R,6S,7R,9R,13aS,14aR,16aS,Z)-14a-(((1-(fluoromethyl)cyclopropyl)sulfonyl)carbamoyl)-7,9-dimethyl-5,16-dioxo-6-((((1,1,1-trifluoro-2-methylpropan-2-yl)oxy)carbonyl)amino)-1,2,3,5,6,7,8,9,10,11,13a,14,14a,15,16,16a-hexadecahydrocyclopropa[e]pyrrolo[1,2-a][1,4]diazacyclopentadecin-2-yl 2-methoxybenzoate]	5.01 to 35 nM	1.01 to 5 nM		
C[C@@H]1CC/C=C\[C@@H]2C[C@@]2(C(=O)NS(=O)(=O)C2(C)CC2)NC(=O)[C@@H]2C[C@@H](OC(=O)N3Cc4cccc(F)c4C3)CN2C(=O)[C@@H](NC(=O)OC(C)(C)C)[C@H](C)C1 [Compound 1315, (2R,6S,7R,9R,13aS,14aR,16aS,Z)-6-((tert-butoxycarbonyl)amino)-7,9-dimethyl-14a-(((1-methylcyclopropyl)sulfonyl)carbamoyl)-5,16-dioxo-1,2,3,5,6,7,8,9,10,11,13a,14,14a,15,16,16a-hexadecahydrocyclopropa[e]pyrrolo[1,2-a][1,4]diazacyclopentadecin-2-yl 4-fluoroisoindoline-2-carboxylate]	0.51 to 1 nM	0.1 to 0.5 nM	0.96 nM	0.33 nM
C[C@H]1CC/C=C\[C@@H]2C[C@@]2(C(=O)NS(=O)(=O)C2(C)CC2)NC(=O)[C@@H]2C[C@@H](OC(=O)N3Cc4cccc(F)c4C3)CN2C(=O)[C@@H](NC(=O)OC(C)(C)C)[C@H](C)C1 [Compound 1314, (2R,6S,7R,9S,13aS,14aR,16aS,Z)-6-((tert-butoxycarbonyl)amino)-7,9-dimethyl-14a-(((1-methylcyclopropyl)sulfonyl)carbamoyl)-5,16-dioxo-1,2,3,5,6,7,8,9,10,11,13a,14,14a,15,16,16a-hexadecahydrocyclopropa[e]pyrrolo[1,2-a][1,4]diazacyclopentadecin-2-yl 4-fluoroisoindoline-2-carboxylate]	5.01 to 35 nM	1.01 to 5 nM		
